What was measured:
Format in all cases: cell-based, Mycobacterium smegmatis
M. smegmatis mc^2 155 [1] = assay: PAC-MAN competition with azide-modified test molecules; details: concentration dependent analysis, 2 h, then Fl-az; read-out: EC50 of apparent permeation
Procedure: Competition with test molecules. To a 96-well plate added 100 uL DBCO-modified M. smegmatis mc^2 155 cells pre well with 50 μM test molecules, in triplicate respectively. The plate was incubated in 37° C. for 2 h. The cells were spun down for 2 min at 3000 g. The supernatant was decanted, and 50 μM FAM-N3 was then added to each well, followed by incubation in 37° C. for 1 h. The cells were then spun down again, and the pellets were washed with PBST for 2 times and fixed with 4% formaldehyde for 15 mins. The samples were then analyzed by Attune™ NxT Acoustic Focusing Cytometer.
LLysN3 competition. To a 96-well plate added 100 uL DBCO-modified M. smegmatis mc^2 155 cells pre well with different concentration of L-Lys-N3 described in the main text, in triplicate respectively. The plate was incubated in 37° C. for 2 h. The cells were spun down for 2 min at 3000 g. […] The samples were then analyzed by Attune® NxT Acoustic Focusing Cytometer.
Next, we set out to benchmark the ability of the assay to report on the permeability of a set of test small molecules by performing a pilot screen with azide-conjugated compounds. […] Next, cells are treated with Fl-az to quantify the level of unreacted DBCO epitopes.^42 Finally, cells are analyzed by flow cytometry to measure total cellular fluorescence.

M. smegmatis mc^2 155 [2] = assay: Example IV: metabolic PG labeling of Msm with DBCO tags followed by azide fluorophore, flow cytometry
Procedure: General method for bacterial peptidoglycan modification. M. smegmatis strains was inoculated from the glycerol stock to the according media and grown for 24 hours until 0.5-0.6 OD, tetrapeptide probes were added to the media and the cells were grown overnight to achieve stationary phase. The cells were harvested the next day and spun down for 2 min at 3000 g, washed with phosphate buffered saline with tween80 (PBST, PBS with 0.05% tween 80) two times and resuspended in PBST to yield DBCO-modified M. smegmatis cells for further labeling and other experiments.
(§1) DBCOtetra compared with stereo control and single amino acid DBCO. M. smegmatis mc^2 155 was inoculated from stationary phase in 1:100 dilution to a fresh 7H9 media with ADC. 25 μM Dap-DBCO, DBCOtetra or DBCOtera(L) were added to the culture tubes respectively, and the cells were grown for 36-40 hours until stationary phase. The cells were harvested and spun down for 2 min at 3000 g, washed with PBST two times and resuspended in PBST. To a 96-well plate added 100 μL cells pre well with 50 μM FAM-N3 in triplicate. The plate was incubated in 37° C. for 1 h and spun down for 2 min at 3000 g. The supernatant was decanted, and the pellets were washed with PBST for 2 times and fixed with 4% formaldehyde for 15 mins. The samples were then analyzed by Attune™ NxT Acoustic Focusing Cytometer.
as §1, with “Confirm for click chemistry on PG.” for “DBCOtetra compared with stereo control and single amino acid DBCO.”, “μM” for “μM Dap-DBCO,”, “FL-tetra” for “DBCOtera(L)”, “uL” for “μL”, “FAM-N3 or 5-carboxy fluorescein accordingly” for “FAM-N3”
as §1, with “Different concentrations of DBCOtetra.” for “DBCOtetra compared with stereo control and single amino acid DBCO.”, “ADC. 5 μM, 10 μM or” for “ADC.”, “μM” for “μM Dap-DBCO,”, “DBCOtetra” for “DBCOtetra or DBCOtera(L)”, “1h” for “1 h”
Different concentration of FAM-N3 and different time. M. smegmatis mc^2 155 was inoculated from stationary phase in 1:100 dilution to a fresh 7H9 media with ADC. 25 μM DBCOtetra were added to the culture tubes, and the cells were grown for 36-40 hours until stationary phase. The cells were harvested and spun down for 2 min at 3000 g, washed with PBST two times and resuspended in PBST. To a 96-well plate added 100 μL cells pre well with different concentration of FAM-N3 described in the main text, 9 wells each. […] The samples were then analyzed by Attune™ NxT Acoustic Focusing Cytometer. […]

Msm ldtΔ5 (PM2750 Δ5) = assay: TetD labeling of Ldt knock out strain; details: 25 μM TetD, 50 μM Fl-Az
Procedure: Ldt knock down strain. M. smegmatis mc^2 155 and PM2750 Δ5 were inoculated from the glycerol stock to the according media and grown for 24 hours until 0.5-0.6 OD, 25 μM DBCOtetra were added to the media, and the cells were grown overnight to achieve stationary phase. The cells were harvested and spinned down for 2 min at 3000 g, washed with PBST two times and resuspended in PBST. To a 96-well plate added 100 uL cells pre well with 50 μM FAM-N3 accordingly in triplicate. The plate was incubated in 37° C. for 1 h and spun down for 2 min at 3000 g. The supernatant was decanted, and the pellets were washed with PBST for 2 times and fixed with 4% formaldehyde for 15 mins. The samples were then analyzed by Attune™ NxT Acoustic Focusing Cytometer.

M. smegmatis cells = assay: Ethidium bromide and Nile red whole-cell accumulation assay; details: cells treated with vehicle or TetD (25 or 50 μM); both dyes
Procedure: Ethidium bromide and Nile red whole-cell accumulation assay. To a Costar 96-well half area black opaque flat bottom plate added 100 uL DBCO-modified M. smegmatis cells each well with 5 μM ethidium bromide and 10 μM Nile red in triplicates, respectively. The fluorescent intensity at different time points were taken by a Synergy H1 microplate reader for 90 min with 3 min intervals and continuously orbital shaking. Wavelengths ethidium bromide, excitation 530 nm, emission 590 nm; Nile red, excitation 540 nm, emission 630 nm.

| SMILES | EC50 (M. smegmatis mc^2 155 [1]) [µM] | PG labeling levels (fluorescence) above vehicle treated cells (M. smegmatis mc^2 155 [2]; Msm, metabolic label then Fl-az) [fold] | fluorescence levels of Msm (M. smegmatis mc^2 155 [2]; metabolic label and/or fluorophore as named) | decrease of fluorescence levels relative to the parental cells (Msm ldtΔ5 (PM2750 Δ5)) [fold] | accumulation of the permeability probe (EtBr or Nile Red) (M. smegmatis cells) |
| --- | --- | --- | --- | --- | --- |
| [N-]=[N+]=NCCCC[C@H](N)C(=O)O [Lys] | 100 |  |  |  |  |
| C[C@H](NC(=O)CCC(=O)N1Cc2ccccc2C#Cc2ccccc21)C(=O)N[C@H](CCC(=O)N[C@@H](CCCCN)C(=O)N[C@H](C)C(=O)O)C(N)=O [TetD] |  | ~85 | concentration-dependent increase in cellular fluorescence | ~7 | no significant change in the accumulation of the permeability probe |

Reference: US20240401101A1, “A LIVE CELL ASSAY TO DETERMINE PERMEABILITY OF TEST MOLECULES TO AND/OR WITHIN THE PEPTIDOGLYCAN SCAFFOLD OF BACTERIA CELLS” (priority 2021, published 2024)
